From patent US5422118A, “Transdermal administration of amines with minimal irritation and high transdermal flux rate” (priority 1992, dated 1995)
Structures can show the parent of a compound that is named as a salt. Where two headings read alike, the source gives them in different places.

Experiments:
human forearm skin [1] = conditions: in vivo
Experimental: Patches of the saturated film 2 cm^2 in area were placed by test subjects on their own forearm skin and held in place by clear, nonocclusive adhesive (Tegaderm), allowing constant observation of the skin under the patch. After 17 hours, skin damage was evaluated by visual observation. The damage was ranked using the following scale: 1 (no discoloration, no erythema); 2 (pink coloration, slight erythema); 3 (reddening, moderate erythema, no burning); 4 (reddening and burning, moderate erythema); 5 (erythema and edema, with or without burning); 6 (severe erythema, edema, and burning); and 7 (severe erythema, severe burning, blistering, and edema).
A physiologically active amine in the free base form can be evaluated for skin irritancy by Procedures A, B, or C, set out above. Alternatively, irritation can be determined by other conventional patch test involving maintaining the amine in contact with the skin for 24 hours, and then observing the skin. The results are evaluated using the scales provided for Procedures A, B, or C as defined herein.

human forearm skin [2] = experiment: Procedure B primary irritation study in humans (Finn Chambers, 24 hours, 0-4 erythema score)
Description: Procedure B Primary Irritation Study in Human- Alternative Method Finn Chambers (Epitest, Ltd OY, Tuusula, Finland) for epicutaneous testing of irritation on Scanpor adhesive (Norgesplaster A/S, Norway; 10 chambers) were used to test the primary irritancy of the test compound or composition. The formulations were introduced into the Finn Chambers using the following procedures. The adhesive covering was removed and the filter paper dots were placed into the chambers to be used. A disposable pasteur pipette was used to add one drop of formulation onto the filter paper. The pipette was then discarded. This was repeated for each formulation, up to 10 formulations. The subjects' forearm was lowered onto the scanpor adhesive and pressure was applied to insure adhesion. Two strips of 2" paper tape were overlapped over the scanpor adhesive. This remained in place for 24 hours, at which time it was removed and scored immediately using the table below. […]
Procedure B was used to evaluate the irritancy of physiologically active amines with or without complexation or solvation as described in more detail below.

skin [3] = conditions: WO 86/00806; cited from earlier work
skin [4] = conditions: WO 86/00806; cited from earlier work; remark: listed apart in the source
skin [5] = system: skin
[6] = Experimental: Given this information and the empirically determined transdermal flux rate of the material, the required patch size in centimeters^2 for effective dosing can be determined. […] The estimated patch size is determined by dividing the calculated therapeutically effective dose rate by the in vitro transdermal flux rate.
The estimated patch size for such a composition can be calculated as described in detail above. […] Since water soluble salt forms of physiologically active amines are not at all soluble in nonpolar, nonvolatile solvents, these solvents cannot be used to increase their transdermal flux rate.
The transdermal patch sizes required to deliver an effective dosage of a selected group of physiologically active amines were evaluated as described above. […] DEET, however, is not an appropriate solvent for extended transdermal drug delivery because it is not a United States Pharmacopeia accepted ingredient.

[7] = cited from earlier work
[8] = Transdermal flux rate through human skin in vitro (flow-through diffusion cell)
Description: A surgically-removed human skin source was used for all in vitro diffusion cell tests. […] Briefly, the full-thickness skin was immersed in distilled water heated to 60±1 degrees C for 45 seconds. The epidermal-stratum corneum layers were then peeled from the dermis. The epidermis-stratum corneum layers were then excised with a cork borer into circular disks 1.4 cm in diameter.
The skin was then mounted onto a Teflon flow-through diffusion cell. […] The skin sample of the donor portion of the diffusion cell was secured in place into the receptor cell. The flow-through cell consisted of a Teflon receptor cell with an exposed skin surface area of 0.32 cm^2 and a receptor cell volume of 0.13 mi. Sink conditions were maintained by pumping phosphate-buffered saline under the skin in the receptor cell at about 3 ml/hr. Thus, the receptor volume was replaced about 23 times per hour. These cells were then mounted on a water-jacketedbracket which maintained the receptor solution in the cells at 33 degrees C. The receptor media which was pumped under the cells was degassed in order to reduce air bubble formation under the skin. […]
Liquid scintillation fluor was added directly to the sample vials so that they could be measured with minimal liquid transfers and handling. The sample vials were then analyzed with appropriate quench correction techniques by liquid scintillation spectroscopy. […]

rabbit back skin = experiment: Procedure C primary skin irritation tests in animals; conditions: 24 hour exposure, scored 24 and 72 hours
Experimental: Procedure C Primary Skin Irritation Tests in Animals Tests were performed on young adult albino rabbits (New Zealand White rabbits). Six rabbits were used for each test. The rabbits were prepared for the test by clipping the hair from the backs of the rabbits and any rabbit showing skin damage from the clipping was rejected from the testing. The application sites for the transdermal drug delivery (TDD) patch was intact skin. As an example, a formulation containing the test composition was incorporated into Poroplastic® transdermal patches. One TDD patch containing the test material was applied to one side of the rabbit's back. […] A one (1) inch square gauze patch, two single layers thick, was used to cover the test TDD patch. The animals were immobilized with patches secured in place by adhesive tape. The entire trunk of the animal was then wrapped with an impervious material for the twenty-four (24) hour exposure period. After 24 hours of exposure the patches were removed and the resulting reactions evaluated on the basis of the scoring system indicated below. Observations were again made at the end of a total of 72 hours (48 hours after the first reading). […]
After 24 hours of exposure the patches were removed and the resulting reactions evaluated on the basis of scores as described above.

skin [9] = conditions: oral form; Physician's Desk Reference; cited from earlier work
[10] = Procedure B, human forearm, 24 hours, score 0-4

Q: Which “Irritation Rating (1-7)” value (human forearm skin [1]) does the source give for CN(C)CCC(c1ccc(Cl)cc1)c1ccccn1 (stereo not drawn) [Chlorpheniramine Salicylate (1:1 M), Chlorpheniramine Salicylate] here?
A: 1.0

Q: And the “Erythema Rating” value (human forearm skin [2]; Procedure B, human forearm, 24 hours, score 0-4, listed as Chlorpheniramine salicylate (1:1 molar ratio))?
A: 0.0

Q: Which “Erythema Rating” value (human forearm skin [2]; [10]) does the source give for CCCCC/C=C\C/C=C\CCCCCCCC(=O)O [Linoleic acid] here?
A: 0

Q: With CCCCCCCC/C=C\CCCCCCCC(=O)O [Oleic acid] as the molecule, how does the “Erythema Rating” value (human forearm skin [2]; in vivo) read?
A: 0

Q: With C=CCCCCCCCCC(=O)O [Undecylenic acid] as the molecule, how does the “Erythema Rating” value (human forearm skin [2]; in vivo) read?
A: 0

Q: Which “dermal irritation or sensitization (in words)” value (skin [3]) does the source give for CN1CCC(=C2c3ccccc3CCc3cccnc32)CC1 [azatadine] here?
A: no dermal irritation or sensitization

Q: And the “dermal penetration (in words)” value (skin [4])?
A: good dermal penetration

Q: For CN(C)CCC(c1ccc(Br)cc1)c1ccccn1 (stereo not drawn) [brompheniramine maleate], which “skin irritation (in words)” value (skin [5]; in vivo) is on record?
A: minimally irritating

Q: Which “Erythema Rating” value (human forearm skin [2]; in vivo) does the source give for CCCCCCCCCCCCCCCCCC(=O)OCCCC [butyl stearate] here?
A: 0

Q: For CN(C)CCC(c1ccc(Cl)cc1)c1ccccn1 (stereo not drawn) [chlorpheniramine maleate], which “Irritation Rating (1-7)” value (human forearm skin [1]) is on record?
A: 1.0

Q: What about the “skin irritation (in words)” value (skin [5]; procedure not specified) of the same molecule?
A: minimally irritating

Q: And the “Erythema Rating” value (human forearm skin [2]; Procedure B, human forearm, 24 hours, score 0-4, listed as Chlorpheniramine maleate (1:1 molar ratio))?
A: 0.0

Q: For CN(C)CCC(c1ccc(Cl)cc1)c1ccccn1 (stereo not drawn) [chlorpheniramine], which “estimated flux needed to achieve therapeutic blood levels” value [6] is on record?
A: 90 µg/h

Q: What about the “Erythema Rating” value (human forearm skin [2]; [10]) of the same molecule?
A: 4.0

Q: Which results are given for CN(C)CC[C@@H](c1ccc(Br)cc1)c1ccccn1 [dexbrompheniramine]?
A: effective blood concentration ([7]; in vivo): 5.3 ng/mL; cal dose rate [6]: 98 µg/h

Q: Which “transdermal flux / skin penetration (in words)” value ([8]; human skin) does the source give for CN(C)CCOC(c1ccccc1)c1ccccc1 [diphenhydramine hydrochloride] here?
A: do not permeate the skin with a therapeutically effective flux rate

Q: Which Transdermal flux rate ([8]; Table 2, applicant's compositions) does the source give for CN(C)CCOC(c1ccccc1)c1ccccc1 [diphenhydramine] here?
A: 55.8 μg/cm2/hr

Q: For OCCOCCN1CCN(C(c2ccccc2)c2ccc(Cl)cc2)CC1 (stereo not drawn) [hydroxyzine], which irritation rating (human forearm skin [2]; in vivo) is on record?
A: ≤ 2

Q: With CCCCCCCCCCCCCC(=O)OC(C)C [isopropyl myristate] as the molecule, how does the “Erythema Rating” value (human forearm skin [2]; in vivo) read?
A: 0.3

Q: Which “Erythema Rating” value (human forearm skin [2]; [10]) does the source give for CCCCCCCC/C=C\CCCCCCCC(=O)OC(C)C [isopropyl oleate] here?
A: 0

Q: Which results are given for CN1CCCC1c1cccnc1 (stereo not drawn) [nicotine]?
A: Clearance ([7]; Table 2): 1200 mL/min; effective blood concentration ([7]; Table 2): 13 ng/mL; cal dose rate ([6]; Table 2, clearance times effective blood level): 936 µg/h; primary irritation score (rabbit back skin): less than 2

Q: For COc1ccc(CCN(C)CCCC(C#N)(c2ccc(OC)c(OC)c2)C(C)C)cc1OC (stereo not drawn) [oral form of Varapamil, Varapamil], which “adverse skin reactions (in words)” value (skin [9]) is on record?
A: arthralgia and rash, exanthema, hair loss, hyperkeratosis, macules, StevenJohnsons syndrome, and erythema multiforme

Q: Which “Erythema Rating” value (human forearm skin [2]; [10]) does the source give for CCCCCCCC/C=C\CCCCCCCC(=O)OCCC [propyl oleate] here?
A: 0
